In one test the target is T1, NATTS DZNR (Slackia sp. NATTS, UniProt H3JUE4).
T1 construct: gene ddce; synthetic gene in pETDuet-1, expressed in E. coli BL21 (DE3), purified
T1 sequence (H3JUE4 1-644): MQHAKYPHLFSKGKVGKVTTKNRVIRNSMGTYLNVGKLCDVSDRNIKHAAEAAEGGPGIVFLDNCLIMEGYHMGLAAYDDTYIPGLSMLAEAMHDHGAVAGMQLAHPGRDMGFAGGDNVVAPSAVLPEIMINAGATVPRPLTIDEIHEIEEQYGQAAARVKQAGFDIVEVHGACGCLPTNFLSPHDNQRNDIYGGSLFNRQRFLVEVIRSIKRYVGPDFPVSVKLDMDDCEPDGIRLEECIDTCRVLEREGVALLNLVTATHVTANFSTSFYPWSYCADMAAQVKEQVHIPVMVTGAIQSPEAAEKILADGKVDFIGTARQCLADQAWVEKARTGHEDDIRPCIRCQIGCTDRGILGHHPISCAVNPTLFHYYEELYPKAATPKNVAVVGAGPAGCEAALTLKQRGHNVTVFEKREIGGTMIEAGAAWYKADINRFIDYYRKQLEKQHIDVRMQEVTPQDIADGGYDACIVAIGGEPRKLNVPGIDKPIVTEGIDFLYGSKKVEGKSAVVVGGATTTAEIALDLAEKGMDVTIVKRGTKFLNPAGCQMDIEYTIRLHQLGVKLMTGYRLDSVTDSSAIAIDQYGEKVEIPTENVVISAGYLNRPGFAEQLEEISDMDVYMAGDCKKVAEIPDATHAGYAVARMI
The test is described as follows: daidzein reductase assay, HPLC. It is filed as biochemical. The following applies: NAD(P)H, anaerobic.

The next test concerns the target T2, Lac 20_92 DZNR (Lactococcus garvieae, UniProt E1CIA4).
T2 construct: gene l-dznr; synthetic gene in pETDuet-1, expressed in E. coli BL21 (DE3), purified
T2 sequence (E1CIA4 1-644): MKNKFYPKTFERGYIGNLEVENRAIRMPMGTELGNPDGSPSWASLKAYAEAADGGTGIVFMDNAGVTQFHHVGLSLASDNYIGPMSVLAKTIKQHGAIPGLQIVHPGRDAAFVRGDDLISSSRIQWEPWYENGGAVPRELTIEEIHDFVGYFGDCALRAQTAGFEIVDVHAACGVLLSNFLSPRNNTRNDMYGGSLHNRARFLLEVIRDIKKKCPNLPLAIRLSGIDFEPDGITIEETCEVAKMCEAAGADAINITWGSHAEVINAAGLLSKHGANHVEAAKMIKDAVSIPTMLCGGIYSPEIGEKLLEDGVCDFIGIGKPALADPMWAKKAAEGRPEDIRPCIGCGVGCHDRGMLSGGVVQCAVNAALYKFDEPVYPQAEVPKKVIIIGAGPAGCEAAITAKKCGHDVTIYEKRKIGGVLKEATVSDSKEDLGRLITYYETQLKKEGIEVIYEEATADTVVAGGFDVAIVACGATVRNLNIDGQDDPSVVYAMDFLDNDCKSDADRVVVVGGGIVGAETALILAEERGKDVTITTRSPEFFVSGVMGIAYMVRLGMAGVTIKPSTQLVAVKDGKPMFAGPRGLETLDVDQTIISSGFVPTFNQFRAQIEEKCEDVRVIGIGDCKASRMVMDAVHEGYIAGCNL
The test is described as follows: daidzein reductase assay, HPLC. The class given is biochemical. The following applies: NAD(P)H, anaerobic, 37°C.

Structures are written as SMILES.

In the case of `O=c1c(-c2ccc(O)cc2)coc2cc(O)ccc12` [daidzein, 7-hydroxy-3-(4-hydroxyphenyl)-4H-chromen-4-one], the “daidzein reductase assay, HPLC” value was “all recombinant proteins showed DZNR activity, which is an ability to convert DZN to DHD” on NATTS DZNR and “all recombinant proteins showed DZNR activity, which is an ability to convert DZN to DHD” at Lac 20_92 DZNR.

Source of the values: paper PMC9164157, “Characterization and Identification of a New Daidzein Reductase Involved in (S)-Equol Biosynthesis in Clostridium sp. ZJ6” (Frontiers in Microbiology, 2022).
